Data as given in paper PMC11855827, “High-Throughput Screening of Five Compound Libraries for Anthelmintic Activity and Toxicity Leads to the Discovery of Two Flavonoid Compounds” (International Journal of Molecular Sciences, 2025).
Several values for one entry are separate records, joined by “and”; a condition that tells them apart may be missing. Equal values may be shown once. Read-outs that look alike come from different tables or passages of the source.

Test system: C. elegans
[1] = Table S2, C. elegans SS assay, 110 μM, 0 h, averages of 4 data points
[2] = Table S2, C. elegans SS assay, 110 μM, 24 h, averages of 4 data points

| Compound | Percentage of motility inhibition 0 h [1] | Percentage of motility inhibition 24 h [2] | Percentage of motility inhibition 0 h (110 µM) [%] | Percentage of motility inhibition 24 h (110 µM) [%] |
| --- | --- | --- | --- | --- |
| Nc1ncnc2c1ncn2[C@H]1C[C@H](O)[C@@H](COP(=O)([O-])OP(=O)([O-])OP(=O)([O-])O)O1.[Na+].[Na+].[Na+] | 21% | 0% | – | – |
| CC(=O)O[C@@H]1CC[C@@]2(C)[C@@H](CC[C@]3(C)[C@@H]2[C@H](O)C=C2[C@@H]4[C@@H](C)[C@H](C)CC[C@]4(C)CC[C@]23C)[C@@]1(C)C(=O)O | 24% | 23% | – | – |
| O=C(O)[C@@H]1C[C@@H](O)CN1 | 11% | 0% | – | – |
| CC1(C)CC[C@]2(C(=O)O)CC[C@]3(C)C(=CC[C@@H]4[C@@]5(C)CC[C@H](O[C@@H]6O[C@H](C(=O)O)[C@@H](O)[C@H](O[C@@H]7OC[C@@H](O)[C@H](O)[C@H]7O[C@@H]7O[C@H](CO)[C@@H](O)[C@H](O)[C@H]7O)[C@H]6O)C(C)(C)[C@@H]5CC[C@]43C)[C@@H]2C1 | 0% | 0% | – | – |
| O=c1c(O[C@@H]2O[C@H](CO)[C@@H](O)[C@H](O)[C@H]2O)c(-c2ccc(O)c(O)c2)oc2cc(O[C@@H]3O[C@H](CO[C@@H]4O[C@H](CO)[C@@H](O)[C@H](O)[C@H]4O)[C@@H](O)[C@H](O)[C@H]3O)cc(O)c12 | – | – | 0 | 0 |
| CN[C@@H]1[C@H](O)[C@H](NC)[C@H]2O[C@@]3(O)C(=O)C[C@@H](C)O[C@H]3O[C@@H]2[C@H]1O.Cl.Cl.O.O.O.O.O | 16% | 2% | – | – |
| C[C@@H]1O[C@@H](O[C@@H]2[C@@H](O)[C@H](O[C@H]3CC[C@]4(C)[C@H]5CC=C6[C@@H]7CC(C)(C)CC[C@]7(C(=O)O[C@@H]7O[C@H](CO)[C@@H](O)[C@H](O)[C@H]7O)CC[C@@]6(C)[C@]5(C)CC[C@H]4C3(C)C)O[C@H](C(=O)O)[C@H]2O)[C@H](O)[C@H](O)[C@H]1O | 6% | 0% | – | – |
| Nc1ccc(C(=O)[O-])c(O)c1.O.O.[Na+] | 24% | 6% | – | – |
| 4'‐O‐Methylbavachalcone | 19% | 3% | – | – |
| Nc1nc(=O)c2c([nH]1)NCC(CNc1ccc(C(=O)N[C@@H](CCC(=O)O)C(=O)O)cc1)N2C=O (mixture of isomers) [Folinic acid] | 11% | 20% | – | – |
| COc1ccc([C@@H]2CC(=O)c3c(O)cc(O)cc3O2)cc1O (racemic) [(Rac)‐Hesperetin] | 0% | 0% | – | – |
| COc1cc(C2Oc3ccc(-c4cc(=O)c5c(O)cc(O)cc5o4)cc3OC2CO)ccc1O (racemic) [(Rac)‐Hydnocarpin] | 7% | 0% | – | – |
| c1cncc([C@@H]2CCCCN2)c1 (racemic) [(±) Anabasine] | 3% | 0% | – | – |
| CN1c2ccccc2C(=O)N2CCc3c([nH]c4ccccc34)[C@@H]21 (racemic) [(±)‐Evodiamine] | 0% | 12% | – | – |
| Cl.c1cc2c(c3c1CC1c4cc5c(cc4CCN1C3)OCO5)OCO2 (racemic) [(±)‐Stylopine (hydrochloride)] | 0% | 3% | – | – |
| c1cc2c(c3c1C[C@H]1c4cc5c(cc4CCN1C3)OCO5)OCO2 (racemic) [(±)‐Stylopine] | 0% | 31% | – | – |
| O[C@H]1CCN2Cc3ccccc3N=C12 (racemic) [(±)‐Vasicine] | 3% | 31% | – | – |
| NC(N)=NCCCC(N)C(=O)O (racemic) [DL-Arginine] | 4% | 0% | – | – |
| OC[C@@H](O)[C@@H](O)[C@H](O)[C@H](O)CO (racemic) [DL-Mannitol] | 0% | 15% | – | – |
| CC1CCC(C(C)C)C(O)C1 (racemic) [DL-Menthol] | 27% | 0% | – | – |
| O=C[C@H](O)[C@@H](O)[C@H](O)CO (racemic) [DL-Xylose] | 0% | 5% | – | – |
| Cc1c(C)c2c(c(C)c1O)CCC(C)(CCCC(C)CCCC(C)CCCC(C)C)O2 (racemic) [DL-alpha-Tocopherol] | 5% | 9% | – | – |

| Compound | Percentage of motility inhibition 0 h [1] | Percentage of motility inhibition 24 h [2] | Percentage of motility inhibition 0 h (110 µM) [%] | Percentage of motility inhibition 24 h (110 µM) [%] |
| --- | --- | --- | --- | --- |
| O=C(Nc1ccccc1F)N[C@H]1N=C(c2ccccc2)c2ccccc2NC1=O (racemic) [RSV604 (racemate)] | 23% | 13% | – | – |
| CN1[C@H]2C[C@H](OC(=O)[C@H](CO)c3ccccc3)C[C@@H]1[C@@H](O)C2 (racemic) [Racanisodamine] | – | 0% and 6% | – | – |
| COC1=CC(=O)OC(/C=C/c2ccccc2)C1 (single isomer, unassigned; (+)) [(+)-Kavain] | 5% | 13% | – | – |
| CC1(C)C(=O)[C@]2(C)CCC1C2 (single isomer, unassigned; (-)) [(-)-Fenchone] | 26% | 22% | – | – |
| CC1CCC(C(C)C)C(O)C1 (single isomer, unassigned; (-)) [(-)-Menthol] | 7% and 6% | – | – | – |
| C[C@H]1O[C@@H](O[C@@H]2CC[C@@]3(C)[C@@H](CC[C@]4(C)[C@@H]3C=C[C@]35OC[C@@]6(CCC(C)(C)C[C@H]63)[C@@H](O)C[C@]54C)[C@@]2(C)CO)[C@H](O)[C@@H](O)[C@H]1O (stereo in doubt) [Prosaikogenin G] | 2% | 34% | – | – |
| CC=C1[C@H](O[C@@H]2O[C@H](CO)[C@@H](O)[C@H](O)[C@H]2O)OC=C(C(=O)OC)[C@H]1CC(=O)OC[C@H]1O[C@@H](OCCc2ccc(O)cc2)[C@H](O)[C@@H](O)[C@@H]1O (stereo in doubt) [Specneuzhenide] | 3% | 31% | – | – |
| CC=C1[C@H](O[C@@H]2O[C@H](CO)[C@@H](O)[C@H](O)[C@H]2O)OC=C(C(=O)OC)[C@H]1CC(=O)OC[C@H]1O[C@@H](OCCc2ccc(O)cc2)[C@H](O)[C@@H](O)[C@@H]1O (stereo in doubt) [Specnuezhenide] | 1% | 13% | – | – |
| Cc1ccn(C)n1 [1,3‐Dimethylpyrazole] | 6% | 3% | – | – |
| CCCCCCCCCCCCCCCCCCCCCCO [1-Docosanol] | 7% | 8% | – | – |
| c1cn[nH]c1 [1H‐pyrazole] | 0% | 21% | – | – |
| CC(C)C1=CC2C(CCC2(C)O)C(C)(O)CC1 (stereo not drawn) [1αH,5αH-Guaia-6-ene-4β,10β-diol] | 0% | 27% | – | – |
| O=C(/C=C/c1ccc(O)c(O)c1)OC1(C(=O)O)C[C@@H](O)C(O)[C@H](O)C1 (stereo partly drawn) [1‐Caffeoylquinic acid] | 24% | 0% | – | – |
| Cl.OC[C@H]1NC[C@@H](O)[C@@H](O)[C@@H]1O [1‐Deoxymannojirimycin (hydrochloride)] | 32% | 11% | – | – |
| Cn1cnc2c(ncn2[C@@H]2O[C@H](CO)[C@@H](O)[C@H]2O)c1=N [1‐Methyladenosine] | 7% | 0% | – | – |
| CCCCCc1cc(=O)c2ccccc2n1C [1‐Methyl‐2‐pentyl‐4(1H)‐quinolinone] | 44% | 30% | – | – |
| O=C(O[C@H]1[C@H](Oc2c(-c3ccc(O)c(O)c3)oc3cc(O)cc(O)c3c2=O)O[C@H](CO)[C@H](O)[C@@H]1O)c1cc(O)c(O)c(O)c1 [2"‐O‐Galloylhyperin] | 32% | 1% | – | – |
| O=c1cc(-c2ccc(O)c(O)c2)oc2c(C3OC(CO)C(O)C(O)C3OC3OC(CO)C(O)C(O)C3O)c(O)cc(O)c12 (stereo not drawn) [2"‐O‐beta‐L‐galactopyranosylorientin] | 7% | 0% | – | – |
| COc1ccc(-c2oc3c(CC=C(C)C)c(O)cc(O)c3c(=O)c2O[C@@H]2O[C@@H](C)[C@H](O)[C@@H](O)[C@H]2O[C@@H]2O[C@@H](C)[C@H](O)[C@@H](O)[C@H]2O)cc1 [2''‐O‐Rhamnosylicariside II] | 0% | 13% | – | – |
| CC(=O)c1ccccc1O [2'‐Hydroxyacetophenone] | 0% | 1% | – | – |
| c1ccc2c(Cc3[nH]c4ccccc4c3Cc3c[nH]c4ccccc34)c[nH]c2c1 [2,3‐Bis(3‐indolylmethyl)indole] | 21% | 9% | – | – |
